# Assay results published in ChEMBL document CHEMBL1201862, “PubChem BioAssay data set” (2004).
# Activity calls are given as the source filed them.
# Assays:
# Cytochrome P450 3A4 = Cytochrome P450 3A4 (Homo sapiens, UniProt P08684);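 also: CYP3A4 tested as one member of a cytochrome P450 panel screen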
# Aminopeptidase N = target: T1, Aminopeptidase N (Plasmodium falciparum FcB1/Columbia, UniProt O96935); test: malaria alanyl aminopeptidase activity blockers – biochemical, fluorogenic H-Leu-NHMec substrate, 1536-well (AID 1445); set-up: species or system Plasmodium falciparum 3D7, 3D7
# T1 sequence (O96935 whole entry): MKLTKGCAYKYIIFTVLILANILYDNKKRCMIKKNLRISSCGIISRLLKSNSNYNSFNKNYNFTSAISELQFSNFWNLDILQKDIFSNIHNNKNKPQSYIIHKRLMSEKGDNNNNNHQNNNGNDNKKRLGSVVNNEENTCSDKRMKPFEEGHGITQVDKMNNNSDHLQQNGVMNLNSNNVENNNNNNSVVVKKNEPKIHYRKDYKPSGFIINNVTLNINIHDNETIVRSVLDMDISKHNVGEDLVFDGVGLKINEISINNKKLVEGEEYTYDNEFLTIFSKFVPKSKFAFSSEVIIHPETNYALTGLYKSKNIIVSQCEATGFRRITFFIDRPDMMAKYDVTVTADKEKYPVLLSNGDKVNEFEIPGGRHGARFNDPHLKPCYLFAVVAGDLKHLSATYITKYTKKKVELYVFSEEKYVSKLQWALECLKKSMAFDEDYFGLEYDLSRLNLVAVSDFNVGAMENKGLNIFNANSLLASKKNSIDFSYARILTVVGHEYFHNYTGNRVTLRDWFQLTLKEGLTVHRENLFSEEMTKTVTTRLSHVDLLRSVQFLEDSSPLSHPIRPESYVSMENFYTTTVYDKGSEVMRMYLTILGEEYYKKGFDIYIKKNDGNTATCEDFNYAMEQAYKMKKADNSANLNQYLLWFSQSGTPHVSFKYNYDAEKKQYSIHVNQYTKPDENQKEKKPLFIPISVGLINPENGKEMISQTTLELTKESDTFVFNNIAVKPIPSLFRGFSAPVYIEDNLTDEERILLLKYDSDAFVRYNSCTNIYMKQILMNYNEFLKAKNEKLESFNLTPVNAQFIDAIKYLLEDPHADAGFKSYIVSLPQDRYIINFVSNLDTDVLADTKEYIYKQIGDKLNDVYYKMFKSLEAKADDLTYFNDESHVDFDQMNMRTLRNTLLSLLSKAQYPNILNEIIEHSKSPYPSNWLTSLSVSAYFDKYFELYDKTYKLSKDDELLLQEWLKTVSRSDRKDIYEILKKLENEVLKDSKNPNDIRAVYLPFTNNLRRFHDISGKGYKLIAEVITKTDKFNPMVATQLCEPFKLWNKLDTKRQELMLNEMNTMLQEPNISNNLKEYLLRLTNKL
# [1] = target: Nucleotide-binding oligomerization domain-containing protein 2 (Homo sapiens, UniProt Q9HC29); test: inhibition of NOD2-driven NF-kB reporter – cell-based, luminescence, uHTS, HEK293 (AID 1566); format: functional
# HEK293 [2] = test: cells; format: functional, cell-based; settings: Homo sapiens
# HEK293 [3] = test: NOD2 signaling inhibitors in MDP-stimulated cells, cell-based, uHTS, luminescence (AID 2001); format: functional; settings: Homo sapiens
# INS1 = test: INS-1E survival protection against cytokine death – cell-based, luminescence, retest, dose response (AID 449756); format: functional; settings: Rattus norvegicus;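 also: cell death triggered by IL-1 beta plus TNF-alpha plus IFN-gamma mixture; protective hits raise ATP signal compared with cytokine alone wells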
# HEK293 [4] = test: cells; format: functional, cell-based; settings: Homo sapiens; remark: listed apart in the source
# HEK293 [5] = test: inhibition of NOD1-driven NF-kB reporter – cell-based, luminescence, uHTS, primary screen (AID 1578); format: functional; settings: Homo sapiens
# HEK293 [6] = test: cells; format: functional, cell-based; settings: Homo sapiens; remark: listed apart in the source
# Leucine aminopeptidase = target: T2, Leucine aminopeptidase (Plasmodium falciparum 3D7, UniProt Q8IL11); test: P. falciparum M17LAP inhibitors, primary screen, biochemical, fluorogenic H-Leu-NHMec substrate, 1536-well (AID 1619); format: functional
# T2 sequence (Q8IL11 whole entry): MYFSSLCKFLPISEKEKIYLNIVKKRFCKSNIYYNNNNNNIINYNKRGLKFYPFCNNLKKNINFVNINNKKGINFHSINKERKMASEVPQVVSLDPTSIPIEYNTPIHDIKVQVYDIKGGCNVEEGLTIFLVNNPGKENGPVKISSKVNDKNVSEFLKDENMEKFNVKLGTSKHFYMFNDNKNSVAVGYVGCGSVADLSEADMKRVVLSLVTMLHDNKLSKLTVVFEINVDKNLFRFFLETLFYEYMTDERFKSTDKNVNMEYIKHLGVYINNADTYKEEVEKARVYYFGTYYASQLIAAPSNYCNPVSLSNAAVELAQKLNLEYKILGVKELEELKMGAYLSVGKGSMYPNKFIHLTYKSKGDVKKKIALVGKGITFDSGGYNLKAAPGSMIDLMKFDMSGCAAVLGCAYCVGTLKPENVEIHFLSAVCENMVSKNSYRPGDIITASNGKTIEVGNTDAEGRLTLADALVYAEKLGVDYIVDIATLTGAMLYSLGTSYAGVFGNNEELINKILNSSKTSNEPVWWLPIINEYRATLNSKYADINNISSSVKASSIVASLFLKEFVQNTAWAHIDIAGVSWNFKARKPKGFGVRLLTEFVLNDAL
# [7] = target: FAD-linked sulfhydryl oxidase ALR (Homo sapiens, UniProt P55789); test: ALR-catalysed DTT oxidation blockers – biochemical, H2O2 detection, luminescence, cherry-pick, dose response (AID 493248)
# [8] = target: DNA dC->dU-editing enzyme APOBEC-3A (Homo sapiens, UniProt P31941); test: Dose Response confirmation of small molecule APOBEC3A DNA Deaminase Inhibitors via a fluorescence-based single-stranded DNA deaminase assay. [Related pubchem assays (depositor defined):AID493011, AID493024]; format: functional
# [9] = target: DNA dC->dU-editing enzyme APOBEC-3G (Homo sapiens, UniProt Q9HC16); format: functional;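 also: Dose-response counterscreen measuring inhibition of APOBEC3G DNA deaminase activity, run while confirming APOBEC3A inhibitors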
# [10] = Vero E6 cell cytotoxicity, dose response, cytotoxicity control for non-replicating M. tuberculosis project, secondary assay (AID 492998); format: functional, VeroE6; settings: Vero C1008
# cells = format: functional
# [11] = THP-1 cell cytotoxicity, dose response, cytotoxicity control for non-replicating M. tuberculosis project (AID 489025); format: functional
# [12] = viability of HCT116 lacking mutant beta-catenin – cell-based, human colon tumor, dose response (AID 1045); format: functional;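 also: HCT116 colon tumor cells with beta catenin knocked out; cells exposed to compound for 60 hours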
# [13] = viability of PTEN-deleted HCT116 cells – cell-based, HCT116 PTEN knockout, dose response (AID 1047); format: functional;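 also: HCT116 colon tumor cells with PTEN knocked out; cells exposed to compound for 60 hours before readout; potency for loss of cell viability measured by luminescence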
# [14] = target: T3, Short transient receptor potential channel 4 (Mus musculus, UniProt Q9QUQ5); test: calcium entry via TRPC4 opening agents – cell-based, HEK293 TRPC4/mu-opioid, Fluo-4 calcium, dose response (AID 434937); format: functional
# T3 sequence (Q9QUQ5 whole entry): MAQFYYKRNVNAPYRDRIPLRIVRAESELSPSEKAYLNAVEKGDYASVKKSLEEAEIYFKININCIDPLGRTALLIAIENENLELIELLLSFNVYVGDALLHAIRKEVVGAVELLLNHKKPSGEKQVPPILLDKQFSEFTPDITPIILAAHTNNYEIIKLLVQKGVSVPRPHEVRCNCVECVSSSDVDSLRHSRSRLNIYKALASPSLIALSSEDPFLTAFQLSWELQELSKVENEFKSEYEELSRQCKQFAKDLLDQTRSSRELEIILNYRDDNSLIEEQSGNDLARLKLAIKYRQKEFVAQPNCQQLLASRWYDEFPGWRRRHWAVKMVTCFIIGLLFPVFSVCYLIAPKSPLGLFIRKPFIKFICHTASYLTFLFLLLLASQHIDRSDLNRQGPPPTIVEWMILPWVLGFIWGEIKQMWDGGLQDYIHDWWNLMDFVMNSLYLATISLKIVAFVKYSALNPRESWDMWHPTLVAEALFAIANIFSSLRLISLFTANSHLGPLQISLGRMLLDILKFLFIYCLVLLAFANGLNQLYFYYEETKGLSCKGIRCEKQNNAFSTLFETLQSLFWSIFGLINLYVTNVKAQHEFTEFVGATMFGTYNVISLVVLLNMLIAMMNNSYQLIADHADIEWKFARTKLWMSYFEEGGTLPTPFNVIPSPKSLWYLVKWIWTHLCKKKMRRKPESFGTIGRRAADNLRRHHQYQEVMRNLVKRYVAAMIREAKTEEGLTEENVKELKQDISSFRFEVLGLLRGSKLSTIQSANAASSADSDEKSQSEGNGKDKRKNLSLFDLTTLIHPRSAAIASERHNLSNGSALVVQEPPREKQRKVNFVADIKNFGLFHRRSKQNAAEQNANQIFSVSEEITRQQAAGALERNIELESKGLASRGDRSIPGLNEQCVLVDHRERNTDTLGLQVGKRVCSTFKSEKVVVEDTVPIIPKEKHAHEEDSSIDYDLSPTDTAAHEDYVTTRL
# Sequence of DNA dC->dU-editing enzyme APOBEC-3G (Q9HC16 whole entry): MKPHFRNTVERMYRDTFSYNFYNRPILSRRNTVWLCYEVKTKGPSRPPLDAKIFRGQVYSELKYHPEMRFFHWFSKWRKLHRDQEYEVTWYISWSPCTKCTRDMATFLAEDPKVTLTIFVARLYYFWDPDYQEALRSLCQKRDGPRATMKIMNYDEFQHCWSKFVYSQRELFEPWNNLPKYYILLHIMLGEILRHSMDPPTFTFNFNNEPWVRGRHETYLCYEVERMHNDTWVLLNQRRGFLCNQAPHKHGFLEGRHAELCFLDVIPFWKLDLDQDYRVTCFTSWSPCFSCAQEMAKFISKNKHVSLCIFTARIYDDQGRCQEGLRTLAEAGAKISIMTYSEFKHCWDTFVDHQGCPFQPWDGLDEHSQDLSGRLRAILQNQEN
# Sequence of DNA dC->dU-editing enzyme APOBEC-3A (P31941 whole entry): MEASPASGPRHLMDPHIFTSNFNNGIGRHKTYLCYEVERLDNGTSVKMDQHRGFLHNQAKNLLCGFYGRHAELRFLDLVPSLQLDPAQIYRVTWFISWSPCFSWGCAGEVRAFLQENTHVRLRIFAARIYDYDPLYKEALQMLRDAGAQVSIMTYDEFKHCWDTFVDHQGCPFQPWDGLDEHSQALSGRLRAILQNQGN
# Sequence of Cytochrome P450 3A4 (P08684 whole entry): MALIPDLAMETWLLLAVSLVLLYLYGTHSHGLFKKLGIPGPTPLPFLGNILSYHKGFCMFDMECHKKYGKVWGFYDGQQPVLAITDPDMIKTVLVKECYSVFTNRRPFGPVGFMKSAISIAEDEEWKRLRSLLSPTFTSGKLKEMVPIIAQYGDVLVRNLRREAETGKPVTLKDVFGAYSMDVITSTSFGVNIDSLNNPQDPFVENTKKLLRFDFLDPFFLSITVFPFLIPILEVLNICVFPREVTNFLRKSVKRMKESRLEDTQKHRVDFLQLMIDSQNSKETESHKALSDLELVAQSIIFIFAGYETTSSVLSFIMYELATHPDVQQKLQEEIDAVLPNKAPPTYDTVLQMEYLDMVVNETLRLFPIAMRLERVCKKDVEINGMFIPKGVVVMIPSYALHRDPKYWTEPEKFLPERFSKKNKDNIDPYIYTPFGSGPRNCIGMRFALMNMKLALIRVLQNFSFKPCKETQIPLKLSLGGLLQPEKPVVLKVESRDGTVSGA
# Sequence of FAD-linked sulfhydryl oxidase ALR (P55789 whole entry): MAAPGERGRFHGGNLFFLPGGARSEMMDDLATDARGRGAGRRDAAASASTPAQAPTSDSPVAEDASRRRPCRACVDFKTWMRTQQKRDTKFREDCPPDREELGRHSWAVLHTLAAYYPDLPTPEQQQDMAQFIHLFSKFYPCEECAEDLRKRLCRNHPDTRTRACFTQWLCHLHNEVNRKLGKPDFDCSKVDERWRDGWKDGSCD
# Sequence of Nucleotide-binding oligomerization domain-containing protein 2 (Q9HC29 whole entry, the tested form may be a part): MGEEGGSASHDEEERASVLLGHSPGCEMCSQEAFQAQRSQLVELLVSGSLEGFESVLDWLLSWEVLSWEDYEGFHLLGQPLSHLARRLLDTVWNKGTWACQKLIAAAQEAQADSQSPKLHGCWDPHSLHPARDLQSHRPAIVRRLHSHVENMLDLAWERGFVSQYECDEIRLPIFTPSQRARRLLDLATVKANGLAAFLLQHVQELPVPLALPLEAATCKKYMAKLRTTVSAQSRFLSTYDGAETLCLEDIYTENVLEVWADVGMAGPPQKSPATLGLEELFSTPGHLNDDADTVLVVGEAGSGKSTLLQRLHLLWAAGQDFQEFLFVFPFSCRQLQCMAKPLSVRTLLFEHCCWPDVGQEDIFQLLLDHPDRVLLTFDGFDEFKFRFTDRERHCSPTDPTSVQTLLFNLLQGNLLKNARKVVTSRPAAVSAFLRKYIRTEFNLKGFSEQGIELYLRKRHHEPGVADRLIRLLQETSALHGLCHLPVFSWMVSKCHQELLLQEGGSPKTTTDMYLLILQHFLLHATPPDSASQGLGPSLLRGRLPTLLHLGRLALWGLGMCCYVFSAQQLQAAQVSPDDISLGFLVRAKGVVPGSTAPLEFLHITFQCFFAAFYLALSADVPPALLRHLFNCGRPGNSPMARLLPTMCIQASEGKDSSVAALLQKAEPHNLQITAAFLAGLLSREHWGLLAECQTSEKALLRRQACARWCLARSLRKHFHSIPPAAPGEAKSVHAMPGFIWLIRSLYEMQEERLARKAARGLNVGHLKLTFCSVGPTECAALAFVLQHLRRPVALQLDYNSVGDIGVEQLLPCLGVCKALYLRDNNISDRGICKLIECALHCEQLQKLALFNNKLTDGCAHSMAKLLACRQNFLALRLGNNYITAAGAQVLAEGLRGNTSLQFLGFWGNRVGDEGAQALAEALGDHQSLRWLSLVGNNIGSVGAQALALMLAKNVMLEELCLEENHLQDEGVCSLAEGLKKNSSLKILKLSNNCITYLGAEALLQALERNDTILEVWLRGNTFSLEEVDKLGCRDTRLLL
structure (smiles),measurement,setting,value
O=S(=O)(c1cccc(C(F)(F)F)c1)N1CCC(c2cc(-c3cccc4ccccc34)[nH]n2)CC1,AC50,Cytochrome P450 3A4,inconclusive
CCOc1cc(/C=N/NC(=O)c2cccs2)cc([N+](=O)[O-])c1O,IC50,Aminopeptidase N,103 µM (active)
Cc1ccc(-c2c(C#N)c(N)n3c(nc4ccccc43)c2C#N)cc1,EC50,[1],> 20 µM (inactive)
same,IC50,HEK293 [2],6.06 µM (active)
same,IC50,HEK293 [3],6.22 µM (active)
same,AC50,INS1,3.86 µM (active)
same,IC50,HEK293 [4],11 µM (active)
same,EC50,HEK293 [5],2.11 µM (active)
same,IC50,HEK293 [6],> 20 µM (inactive)
Nc1n[nH]c(N)c1N=Nc1ccccc1,IC50,Leucine aminopeptidase,7.03 µM (active)
same,AC50,[7],6.02 µM (active)
CC1=CC(C)(C)[N+](C)(C)c2ccccc21,IC50,[8],2.6 µM (active)
same,IC50,[9],2.98 µM (active)
CCn1nc(NC(=O)COC)c2cc3cc(C)ccc3nc21,IC50,[8],5.02 µM (active)
same,IC50,[9],6.5 µM (active)
COc1cc(CNCCc2ccccc2)cc(Br)c1OCC(=O)Nc1ccccc1C,CC50,[10],19.4 µM (active)
same,IC50,cells,21.2 µM (active)
same,CC50,[11],23.1 µM (active)
COc1ccc(/C=C2\COc3ccccc3C2=O)cc1OC,CC50,[10],> 20 µM (active)
same,EC50,[12],7.29 µM (active)
same,IC50,cells,12.8 µM (active)
same,CC50,[11],17.9 µM (active)
same,EC50,[13],7.42 µM (active)
COc1ccc(-c2nn(-c3ccccc3C)cc2CNC(C)c2cn(C)nc2C)cc1F (stereo not given),EC50,[14],1.68 µM (active)
COc1ccc(/C=N/NC(=S)Nc2cccc(C(=O)O)c2)cc1,IC50,Leucine aminopeptidase,19.6 µM (active)
